# Assay results as given in US7638122B2, “Stat3 antagonists and their use as vaccines against cancer” (University of South Florida, priority 2003, dated 2009).
# Square brackets hold non-standard residues; d marks the D form. Ends that are not written are not given here. pY = N[C@@H](Cc1ccc(OP(=O)(O)O)cc1)C(=O)O
# Test system: bone marrow progenitor cells
# Assay: DC differentiation/maturation from bone marrow progenitor cells in the presence of tumor supernatants
# Assay type: cell-based, mouse
# Conditions: supernatant from CT26 tumor cells (5%), 375 μM peptide, 6 days
# Method: FIG. 7. Inhibition of Stat activity in dendritic cells alleviates the negative effect of tumor-secreted factors on DC differentiation. a, Stat activation in DCs treated for 1 hour with recombinant VEGF (100 ng/ml) or incubated for 15 min. with various supernatants as indicated. […] Bone marrow progenitor cells were cultured for 6 days in DC medium alone or in the presence of supernatant from CT26 tumor cells (5%) plus 375 μM of anti-Stat3 (PY*LKTK) (SEQ ID NO: 11); or control (PYLKTK) (SEQ ID NO: 12); peptide.
# Preparation of bone marrow progenitor cells (BMPCs) and generation of bone marrow-derived mature DCs were carried out according to a previously described protocol (Lu et al., 2000, J. Exp. Med. 191: 541-550). Relatively mature DCs were obtained by incubating, BMPCs in medium containing GM-CSF and IL-4 for 6 days. […] Following 48 hours culture, suspension cells were collected and analyzed for IL-12 secretion by ELISA (R & D) and expression of DC-surface markers (CD86, CD40 and MHC Class II) by flow cytometry. All antibodies were purchased from PharMingen and surface expression was analyzed using a FACScan cytofluorometer (Becton Dickinson) as previously described, (Lu et al., 2000, supra). […] T-cell proliferation was measured by [^3H]-thymidine incorporation over 18 hours.
substance,measurement,value
PY*LKTK (P[pY]LKTK),effect of tumor-derived factors on DC differentiation,relieve the negative effect of tumor-derived factors on DC differentiation
